Laboratory results from publication PMC10954593, “Gastrodinol derivatives and prenylated flavones from the flower branch of Gastrodia elata” (Natural Products and Bioprospecting, 2024).
≈ marks a conversion by molar mass, not a printed value. Like-named read-outs stand apart in the source and are kept apart here.

Experiments:
MRSA = assay: anti-MRSA activity (96-well culture plate, OD at 625 nm after 24 h); assay type: cell-based, methicillin-resistant Staphylococcus aureus; settings: for MIC50 / MIC50 (50% minimum inhibitory concentration), anti-MRSA: 24 h; for MIC50: read-out: MIC50 (50% minimum inhibitory concentration), anti-MRSA; for inhibition at 100 µM: read-out: Inhibition rate (%) of MRSA; for anti-MRSA activity (in words): abstract statement
Description: Prepare samples with DMSO as a solvent into a solution with an initial concentration of 20 mM; Take a 96-well culture plate, dilute the sample to be measured, and add bacterial solution to each well, and the final concentration is 5 × 10^5 CFU/mL; Incubate at 37 °C for 24 h, and the microplate reader determines the OD value at 625 nm. The experiment also set up a media blank control, a bacterial control and a vancomycin-positive drug control.
MIC50 (50% minimum inhibitory concentration) is calculated according to the Reed & Muench method.

AChE = AChE (Homo sapiens, UniProt P22303); assay: biochemical; assay type: biochemical; settings: for inhibition at 50 µM: concentration 50 μM, read-out: AChE inhibition rate, primary screening; for IC50: positive control tacrine, read-out: IC50 of AChE-inhibiting activity; for acetylcholinesterase inhibitory activity (in words): abstract statement
Description: The reaction is carried out in a 96-well plate with plates plated by 200 μL/system with 3 replicates per sample; Detect the absorbance value of 405 nm every 30 s within 1 h after the addition of the color developer and substrate.

[1] = Staphylococcus aureus, MRSA, concentration 100 μM, preliminary screen
[2] = Staphylococcus aureus, MRSA, Reed & Muench method, 37 °C

AChE, sequence (P22303 32-614): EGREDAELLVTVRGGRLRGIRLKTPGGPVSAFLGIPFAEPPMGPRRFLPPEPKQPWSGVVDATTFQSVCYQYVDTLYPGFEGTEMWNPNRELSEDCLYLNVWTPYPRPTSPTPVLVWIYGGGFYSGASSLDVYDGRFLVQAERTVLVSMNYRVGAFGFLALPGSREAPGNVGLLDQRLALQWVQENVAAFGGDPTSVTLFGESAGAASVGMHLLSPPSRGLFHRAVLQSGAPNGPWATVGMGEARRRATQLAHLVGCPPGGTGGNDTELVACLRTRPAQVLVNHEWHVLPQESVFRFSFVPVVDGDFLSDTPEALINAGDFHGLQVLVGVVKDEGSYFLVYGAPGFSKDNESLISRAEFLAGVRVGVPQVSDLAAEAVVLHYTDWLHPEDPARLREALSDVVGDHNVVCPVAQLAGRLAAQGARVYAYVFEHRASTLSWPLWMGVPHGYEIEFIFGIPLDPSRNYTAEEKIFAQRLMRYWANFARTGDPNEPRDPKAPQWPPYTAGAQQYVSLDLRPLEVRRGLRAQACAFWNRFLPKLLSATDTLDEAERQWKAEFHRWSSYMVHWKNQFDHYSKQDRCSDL

SMILES	MIC50 (MRSA; Staphylococcus aureus, MRSA)	inhibition at 100 µM (MRSA; Staphylococcus aureus, MRSA)	inhibition at 100 µM (MRSA; [1])	inhibition at 50 µM (AChE)	IC50 (AChE)	MIC50 (50% minimum inhibitory concentration), anti-MRSA (MRSA; Reed & Muench method, 37 °C)	MIC50 (MRSA; [2])	anti-MRSA activity (in words) (MRSA)	acetylcholinesterase inhibitory activity (in words) (AChE)	MIC50 (MRSA; Reed & Muench method, 37 °C)
CN[C@H](CC(C)C)C(=O)N[C@H]1C(=O)N[C@@H](CC(N)=O)C(=O)N[C@H]2C(=O)N[C@H]3C(=O)N[C@H](C(=O)N[C@H](C(=O)O)c4cc(O)cc(O)c4-c4cc3ccc4O)[C@H](O)c3ccc(c(Cl)c3)Oc3cc2cc(c3O[C@@H]2O[C@H](CO)[C@@H](O)[C@H](O)[C@H]2O[C@H]2C[C@](C)(N)[C@H](O)[C@H](C)O2)Oc2ccc(cc2Cl)[C@H]1O [Vancomycin, reference compound]	0.433 ± 0.002 µM (≈ 0.628 µg/mL)	98.86 ± 0.495%	–	–	–	–	–	–	–	–
COc1cc2ccc3c(c2c(O)c1Cc1ccc(O)cc1)C(=O)C(Cc1ccc(O)cc1)(Cc1ccc(O)cc1)C3=O [Compound 3, 9-hydroxy-2,2,8-tris(4-hydroxybenzyl)-7-methoxy-1H-cyclopenta[a]naphthalene-1,3(2H)-dione]	–	–	13.5 ± 2.48%	> 60%	15.7 ± 1.57 µM	–	–	–	–	–
CC(C)=CCc1c(-c2ccc(O)cc2O)oc2c(CC=C(C)C)c(O)cc(O)c2c1=O [Compound 12, kuwanon C]	–	–	> 80%	–	–	1.911 ± 0.018 µM (≈ 0.807 µg/mL)	1.91 µM (≈ 0.807 µg/mL)	good activity	–	–
CC(C)=CCc1c(O)cc(O)c2c(=O)c3c(oc12)-c1ccc(O)cc1OC3C=C(C)C (stereo not drawn) [Compound 11, cyclomulberrin]	–	–	> 80%	–	–	1.908 ± 0.014 µM (≈ 0.802 µg/mL)	1.91 µM (≈ 0.802 µg/mL)	good activity	–	–
CC1=CC2c3c(cc(-c4cc5ccc(O)cc5o4)c(Cc4ccc(O)cc4)c3O)OC3(c4ccc(O)cc4O)Oc4cc(O)ccc4C(C1)C23 (stereo not drawn) [Compound 9, 8a-(2,4-dihydroxyphenyl)-6-(6-hydroxybenzofuran-2-yl)-5-(4-hydroxybenzyl)-2-methyl-1,3a1,8a,13b-tetrahydro-3aH-benzo [3, 4] isochromeno[1,8-bc] chromene-4,11-diol]	–	–	63.95 ± 0.124%	> 60%	0.488 ± 0.032 µM	–	–	–	good acetylcholinesterase inhibitory activity	–
COc1cc(O)c2c3c(ccc2c1Cc1ccc(O)cc1)C(=O)C(Cc1ccc(O)cc1)(Cc1ccc(O)cc1)C3=O [Compound 2, 9-hydroxy-2,2,6-tris(4-hydroxybenzyl)-7-methoxy-1H-cyclopenta[a]naphthalene-1,3(2H)-dione]	–	–	77.2 ± 1.61%	> 60%	24.7 ± 0.732 µM	–	–	–	–	–
CC1(C)C=Cc2c(cc(O)c3c(=O)c(CC(O)C(C)(C)O)c(-c4ccc(O)cc4O)oc23)O1 (stereo not drawn) [Compound 6, 3-(2,3-dihydroxy-3-methylbutyl)-2-(2,4-dihydroxyphenyl)-5-hydroxy-8,8-dimethyl-4H,8H-pyrano[2,3-f] chromen-4-one]	–	–	> 80%	–	–	–	61.6 ± 1.56 µM (≈ 28 µg/mL)	–	–	–
Cc1ccc2c(c1)-c1cc(C3CC(=O)c4c(O)cc(O)cc4O3)c(O)cc1OC2(C)C (stereo not drawn) [Compound 5, 5,7-dihydroxy-2-(3-hydroxy-6,6,9-trimethyl-6H-benzo[c]chromen-2-yl) chroman-4-one]	–	–	> 80%	–	–	4.46 ± 0.02 µM (≈ 1.87 µg/mL)	4.4 µM (≈ 1.84 µg/mL)	good activity	–	4.46 µM (≈ 1.87 µg/mL)
COc1c(Cc2ccc(O)cc2)c(O)c2c3c(ccc2c1Cc1ccc(O)cc1)C(O)CCC3=O (stereo not drawn) [Compound 1, 1,5-dihydroxy-6,8-bis(4-hydroxybenzyl)-7-methoxy-2,3-dihydrophenanthren-4(1H)-one]	–	–	> 80%	–	–	–	22.06 ± 0.026 µM (≈ 10.4 µg/mL)	–	–	–
CC1=C[C@H]2c3c(O)cc(-c4cc5ccc(O)cc5o4)cc3O[C@@]3(c4ccc(O)cc4O)Oc4cc(O)ccc4[C@H](C1)[C@@H]23 [Compound 13, mulberrofuran G]	–	–	> 80%	> 60%	1.06 ± 0.011 µM	1.264 ± 0.005 µM (≈ 0.711 µg/mL)	1.26 µM (≈ 0.711 µg/mL)	good activity	good acetylcholinesterase inhibitory activity	–
